Measurements reported in patent publication US7626026B2, “Pyrrolo-indole and pyrrolo-quinoline derivatives as prodrugs for tumour treatment” (University of Bradford, priority 2001, dated 2009).
Marks after values point to notes of the source that are not given here.

System: Chinese Hamster Ovary (CHO) cell
Assay: MTT cytotoxicity in CHO cells, with and without activation by NADPH-supplemented rat liver microsomes
Format: cell-based
Conditions: for IC50: Cricetulus griseus, CHO, cells incubated 24 hours, MTT, mean±sd for three experiments
Method: Test compound (synthesised in example 3) activation by CYP enzymes was carried out using NADPH supplemented rat liver microsomes; Incubation mixtures comprised microsomal protein (1 mg/ml), reduced-nicotinamide adenine dinucleotide phosphate (NADPH, 10 mM) and phosphate buffer (pH7.4, 100 mM). Test compound (0.01-100 μM final concentration) in DMSO (20 μl) was added to the microsomal incubation mixtures (0.5 ml) and incubated for 60 min at 37C. Control incubates contained test compound and microsomal incubation mixture terminated at 0 time. All incubations were terminated by addition of an equal volume of ice-cold acetonitrile and microfuged for 3 min. Aliquots of the supernatant were added to cells in culture.
Chinese Hamster Ovary (CHO) cell were grown in MEM supplemented with. 10% dialysed FBS and G418 (400 μg/ml). All cells were seeded at an initial density of 1000 cells/well in 96-well-plates, incubation at 37° C. for 24 hours. Aliquots (0.1 ml) of the test compound/microsomal/acetonitrile supernatnant was then added to the CHO cells. Cells were then incubated for 24 hours at 37° C., 5% CO2. After this time period MTT (50 μl; 2 mg/ml stock solution) was added to each well and cells were incubated for a further 4 hours. During this time period MTT, a hydrogen acceptor tetrazolium salt, is reduced to formazan dye by mitochondrial dehydrogenase of viable cells. The media was aspirated from cells and DMSO (100 μl/well) added to solubilise the coloured formazan dye. Absorbance of the formazan dye in the 96-well-plates was then determined at 550 nm. The effect of microsomal activation by the test compound on the arrest of CHO cell growth could be determined by comparing the IC50 (concentration that inhibited cell growth by 50%) with and without microsomal incubation.
Effect of compound 3.8 and its metabolism (activation) product on the survival of Chinese hamster ovary cells in culture. Cells were incubated for 24 hours with supernatants from reaction mixtures of compound 3.8 with NADPH fortified rat liver microsomes. […] Values are expressed as the mean±sd for three experiments. […]

Compound: CCOC(=O)c1cc2c3c(ccc2[nH]1)N(C(=O)c1cc2cc(OC)ccc2[nH]1)CC3CCl (stereo not drawn) [3.8, Ethyl 1-(chloromethyl)-3-((5-methoxy-1H-indol-2-yl)carbonyl)-1,2-dihydro-3H-pyrrolo[3,2-e]indole-7-carboxylate]
- AF (activity factor, ratio of IC50 cytotoxicity values obtained for ± activation) (CHO cells, IC50 −activation / IC50 +activation): 71.7*
- IC50 (control incubate terminated at 0 time (no microsomal activation)): 4.3 ± 0.41 µM
- IC50 (supernatant after 60 min incubation at 37C with NADPH-fortified rat liver microsomes): 0.06 ± 0.02 µM
